# Experimental data reported in patent publication US7012060B1, “TNF receptor and steroid hormone in a combined therapy” (priority 1995, dated 2006).
# Marks after values point to notes of the source that are not given here.
# System: septic shock induced by LPS + D-Galactosamine, in mice
# Test: LPS+D-Galactosamine-induced septic shock model
# Assay type: in vivo, SPF female BALB/c inbred mice
# Protocol: The experiments were carried out in vivo on mice. The septic shock was induced by an i.p. administration of a mixture of LPS (0.1 μg/mouse) and D-Galactosamine (18 mg/mouse).
# The treatment schedule for r-hTBP-1 based on repeated administrations (the total dose was divided into 4 administrations given at time 0 and […] and 24 hours after), was adopted. CHO r-hTBP-1 was tested, alone or in combination with DHEA, at dose levels of 62.5 and 125 μg/mouse (total dose).
# DHEA was tested both in a single administration injected i.p. one hour before and contemporaneously to the septic shock-inducing agent at doses encompassed between 100 and 2.000 μg/mouse and in repeated treatment with the total dose (250 μg/mouse) divided into 4 injections given within 24 hours.
# The above treatment schedules of DHEA (doses from 250 to 1,500 μl g/mouse) were followed also in combination with r-hTBP-1 which was tested at the total dose varying from 62.5 to 125 μg/mouse (divided into 4 administrations).
# SPF female BALB/c inbred mice, 6–8 weeks (about 18–20 g b.w.), from Charles River were used throughout the whole study after an acclimatisation period of at least 7 days.
# Unless otherwise specified, in all the experiments the mice were randomly divided into groups of 10 animals each.
# Both substances were dissolved in saline. The mixture of LPS (0.1 μg/mouse) and D-Galactosamine (18 mg/mouse) was prepared by mixing equal volumes of these substances. The mixture was subsequently injected to animals by the i.p. route. This dose was selected under precious experiments as that inducing around 80% mortality calculated as the number of dead vs. total number of mice for each croup. The lethality was monitored after 24, 48, 72 and 96 hours and at day 7 post-treatment.
# The drug was diluted in saline and injected by repeated administrations, i.e. i.v. immediately before the inoculum of LPS plus D-Galactosamine and s.c. 3, 6 and 24 hours later.
# The effects of DHEA, alone or in combination with r-hTBP-1, were assayed after single i.p. administrations at different times in respect to LPS+D-Galactosamine injection; in particular, it was administered 1 hour before and contemporaneously to the septic shock-inducing agent.
# A repeated treatment schedule was also investigated in which DHEA was administered at time 0 (septic shock induction) and 3, 6 and 24 hours later. DHEA was initially vehicled in a mixture of 2.5% alcohol and 10% rabbit serum in saline. To improve the solubility and standardise the preparation, the steroid was successively dispersed in a mixture of 2.5% alcohol and 10% phospholipid emulsion in saline.
# The primary end point was the survival rate at 48 hours after induction of septic shock. The comparison of the effects of each treatment group vs. controls and among treatment groups was effected by Fisher's exact test, one-tailed. The same comparison was also performed at the other time points. The results in each treatment group were expressed as percent survival.
# In all the experiments, percent survival values were calculated using the survival Tables for the follow up studies (Armitage P. Cap. XIV. Tavole di sopravvivenza in Statistica Medica, Feltrinelli, Milano). The χ^2-test was applied to each observation time by comparing the DHEA+r-hTBP-1 groups to the other groups.
smiles,measurement,setting,value
"C[C@]12CC[C@H](O)CC1=CC[C@@H]1[C@@H]2CC[C@]2(C)C(=O)CC[C@@H]12 [DHEA, Dehydroepiandrosterone]",protection,DHEA 1.000 μg contemporaneously with LPS+D-Gal vs same dose 1 hour before,higher protection
same,survival rate,"DHEA 1.500 μg/mouse alone, 1 hour before",40%
same,protective effects,"DHEA 2.000 μg/mouse, 1 hour before LPS+D-Galactosamine, all time points",complete protection
same,% cumulative survival,"DHEA 100 μg/mouse i.p. 1 hour before LPS + D-Gal, saline 10% rabbit serum, 24 hrs, 1st exp",20%
same,% cumulative survival,"DHEA 100 μg/mouse i.p. 1 hour before LPS + D-Gal, saline 10% rabbit serum, 48 hrs, 1st exp",20%
same,% cumulative survival,"DHEA 100 μg/mouse i.p. 1 hour before LPS + D-Gal, saline 10% rabbit serum, 72 hrs, 1st exp",20%
same,% cumulative survival,"DHEA 100 μg/mouse i.p. 1 hour before LPS + D-Gal, saline 10% rabbit serum, 96 hrs, 1st exp",20%
same,protection (survival),"DHEA 250 μg/mouse alone at time 0, rabbit serum vehicle",30%
same,survival rate,"DHEA 250 μg/mouse divided into 4 inocula at 0, 3, 6 and 24 hours (group E), 48 hours",40%
same,% cumulative survival,"DHEA 250 μg/mouse i.p. at time 0, saline 10% rabbit serum, 24 hrs, 2nd exp.",20%
same,% cumulative survival,"DHEA 250 μg/mouse i.p. at time 0, saline 10% rabbit serum, 48 hrs, 2nd exp.",20%
same,% cumulative survival,"DHEA 250 μg/mouse i.p. at time 0, saline 10% rabbit serum, 72 hrs, 2nd exp.",20%
same,% cumulative survival,"DHEA 250 μg/mouse i.p. at time 0, saline 10% rabbit serum, 96 hrs, 2nd exp.",20%
same,survival rate,"DHEA 250 μg/mouse single injection (group D), 48 hours",30%
same,% cumulative survival,"DHEA 500 μg/mouse i.p. 1 hour before LPS + D-Gal, saline 10% rabbit serum, 24 hrs, 1st exp",10%
same,% cumulative survival,"DHEA 500 μg/mouse i.p. 1 hour before LPS + D-Gal, saline 10% rabbit serum, 48 hrs, 1st exp",10%
same,% cumulative survival,"DHEA 500 μg/mouse i.p. 1 hour before LPS + D-Gal, saline 10% rabbit serum, 72 hrs, 1st exp",10%
same,% cumulative survival,"DHEA 500 μg/mouse i.p. 1 hour before LPS + D-Gal, saline 10% rabbit serum, 96 hrs, 1st exp",10%
same,% cumulative survival,"DHEA 500 μg/mouse i.p. at time 0, saline 10% rabbit serum, 24 hrs, 1st exp.",50%
same,% cumulative survival,"DHEA 500 μg/mouse i.p. at time 0, saline 10% rabbit serum, 24 hrs, 2nd exp.",30%
same,% cumulative survival,"DHEA 500 μg/mouse i.p. at time 0, saline 10% rabbit serum, 48 hrs, 1st exp.",40%
same,% cumulative survival,"DHEA 500 μg/mouse i.p. at time 0, saline 10% rabbit serum, 48 hrs, 2nd exp.",30%
same,% cumulative survival,"DHEA 500 μg/mouse i.p. at time 0, saline 10% rabbit serum, 72 hrs, 1st exp.",30%
same,% cumulative survival,"DHEA 500 μg/mouse i.p. at time 0, saline 10% rabbit serum, 72 hrs, 2nd exp.",30%
same,% cumulative survival,"DHEA 500 μg/mouse i.p. at time 0, saline 10% rabbit serum, 96 hrs, 1st exp.",30%
same,% cumulative survival,"DHEA 500 μg/mouse i.p. at time 0, saline 10% rabbit serum, 96 hrs, 2nd exp.",30%
same,% cumulative survival,"DHEA 750 μg/mouse i.p. at time 0, saline 10% rabbit serum, 24 hrs, 1st exp.",40%
same,% cumulative survival,"DHEA 750 μg/mouse i.p. at time 0, saline 10% rabbit serum, 24 hrs, 2nd exp.",50%
same,% cumulative survival,"DHEA 750 μg/mouse i.p. at time 0, saline 10% rabbit serum, 48 hrs, 1st exp.",40%
same,% cumulative survival,"DHEA 750 μg/mouse i.p. at time 0, saline 10% rabbit serum, 48 hrs, 2nd exp.",50%
same,% cumulative survival,"DHEA 750 μg/mouse i.p. at time 0, saline 10% rabbit serum, 72 hrs, 1st exp.",40%
same,% cumulative survival,"DHEA 750 μg/mouse i.p. at time 0, saline 10% rabbit serum, 72 hrs, 2nd exp.",50%
same,% cumulative survival,"DHEA 750 μg/mouse i.p. at time 0, saline 10% rabbit serum, 96 hrs, 1st exp.",40%
same,% cumulative survival,"DHEA 750 μg/mouse i.p. at time 0, saline 10% rabbit serum, 96 hrs, 2nd exp.",50%
same,% cumulative survival,"DHEA 1000 μg/mouse i.p. 1 hour before LPS + D-Gal, saline 10% rabbit serum, 24 hrs, 2nd exp",20%
same,% cumulative survival,"DHEA 1000 μg/mouse i.p. 1 hour before LPS + D-Gal, saline 10% rabbit serum, 48 hrs, 2nd exp",20%
same,% cumulative survival,"DHEA 1000 μg/mouse i.p. 1 hour before LPS + D-Gal, saline 10% rabbit serum, 72 hrs, 2nd exp",10%
same,% cumulative survival,"DHEA 1000 μg/mouse i.p. 1 hour before LPS + D-Gal, saline 10% rabbit serum, 96 hrs, 2nd exp",0%
same,% cumulative survival,"DHEA 1000 μg/mouse i.p. at time 0, saline 10% rabbit serum, 24 hrs, 1st exp.",80^a %
same,% cumulative survival,"DHEA 1000 μg/mouse i.p. at time 0, saline 10% rabbit serum, 48 hrs, 1st exp.",60%
same,% cumulative survival,"DHEA 1000 μg/mouse i.p. at time 0, saline 10% rabbit serum, 72 hrs, 1st exp.",60%
same,% cumulative survival,"DHEA 1000 μg/mouse i.p. at time 0, saline 10% rabbit serum, 96 hrs, 1st exp.",60%
same,% cumulative survival,"DHEA 1500 μg/mouse i.p. 1 hour before LPS + D-Gal, saline 10% rabbit serum, 24 hrs, 2nd exp",70^a %
same,% cumulative survival,"DHEA 1500 μg/mouse i.p. 1 hour before LPS + D-Gal, saline 10% rabbit serum, 48 hrs, 2nd exp",70^a %
same,% cumulative survival,"DHEA 1500 μg/mouse i.p. 1 hour before LPS + D-Gal, saline 10% rabbit serum, 72 hrs, 2nd exp",50%
same,% cumulative survival,"DHEA 1500 μg/mouse i.p. 1 hour before LPS + D-Gal, saline 10% rabbit serum, 96 hrs, 2nd exp",50%
